Results on 7 compounds are retold here after ChEMBL document CHEMBL1154232, “Cerebrosides of the halotolerant fungus Alternaria raphani isolated from a sea salt field” (J Nat Prod, 2009).

≈ marks a conversion by molar mass, not a printed value.

The subject of assay [1] is A549. Description: Cytotoxicity against human A549 cells after 72 hrs by MTT assay. Format: functional, cell-based. Particulars: A549, 72 h.
Assay [2] relates to P388. Description: Cytotoxicity against mouse P388 cells after 24 hrs by SRB assay. Particulars: P388, 24 h. In kind it is functional, cell-based. (In SRB staining, fixed cells bind dye roughly in proportion to their protein.)
Assay [3] concerns Bacillus subtilis. Briefly: Antibacterial activity against Bacillus subtilis after 24 hrs by agar dilution method. Format: functional. A general note: In agar dilution, organisms are placed on agar that contains the substance at set levels.
Assay [4] relates to HL-60. Briefly: Cytotoxicity against human HL60 cells after 24 hrs by SRB assay. Format: functional, cell-based. Particulars: HL-60, 24 h.
Assay [5] deals with Escherichia coli. Description: Antibacterial activity against Escherichia coli after 24 hrs by agar dilution method. In kind it is functional.
Assay [6] deals with Bel-7402. Briefly: Cytotoxicity against human Bel7402 cells after 72 hrs by MTT assay. In kind it is functional, cell-based. Particulars: Bel-7402, 72 h. Background: Tetrazolium assays rely on reduction of a dye to a coloured formazan, in cell work by metabolically active cells.
Assay [7] deals with Candida albicans. Briefly: Antifungal activity against Candida albicans after 24 hrs by agar dilution method. Format: functional.
Assay [8] has as its system Radical scavenging activity. Briefly: Antioxidant activity assessed as DPPH free radical scavenging activity after 30 mins. In kind it is functional.

In the case of `C=C(CCCCCCCCC)C(=O)CC/C=C/[C@@H](O)[C@H](CO[C@@H]1O[C@H](CO)[C@@H](O)[C@H](O)[C@H]1O)NC(=O)[C@H](O)/C=C/CCCCCCCCCCCCCC` [ALTERNAROSIDE A], the IC50 (commonly the midpoint of a concentration-inhibition curve) in assay [1] is more than 100 µM; in assay [2] it was more than 100 µM; in assay [4], more than 100 µM; in assay [6] it was more than 100 µM; in assay [8], more than 500 µM. Further, the figures for the MIC in assay [3], in assay [5] and in assay [7] were 130 µM (≈ 99.9 µg/mL), 130 µM (≈ 99.9 µg/mL) and 260 µM (≈ 200 µg/mL), respectively.
On to `CCCCCCCCCCCCCC/C=C/[C@@H](O)C(=O)N[C@@H](CO[C@@H]1O[C@H](CO)[C@@H](O)[C@H](O)[C@H]1O)[C@H](O)/C=C/CC/C=C(\C)CCCCCCCC` [ALTERNAROSIDE B], for which the IC50 in assay [1] is more than 100 µM; in assay [2], more than 100 µM; in assay [4] it was more than 100 µM; in assay [6] it was more than 100 µM; in assay [8], more than 500 µM. In addition, the MIC (commonly the smallest concentration in the dilution series that meets the test's criterion for growth inhibition) in assay [3] stood at 68 µM (≈ 50.3 µg/mL); in assay [5], 135 µM (≈ 99.9 µg/mL); in assay [7] it was 270 µM (≈ 200 µg/mL).
For `CCCCCCCCC/C=C\CC/C=C/[C@@H](O)[C@H](CO[C@@H]1O[C@H](CO)[C@@H](O)[C@H](O)[C@H]1O)NC(=O)[C@H](O)/C=C/CCCCCCCCCCCCCC` [ALTERNAROSIDE C], the IC50 in assay [1] was more than 100 µM; in assay [2], more than 100 µM; in assay [4], more than 100 µM; in assay [6], more than 100 µM; in assay [8] it was more than 500 µM. The MIC in assay [3] came out at 135 µM (≈ 99.9 µg/mL); in assay [5] it was 135 µM (≈ 99.9 µg/mL); in assay [7], 270 µM (≈ 200 µg/mL).
In the case of `O=C1O[C@H]([C@@H](O)CO)C(O)=C1O` [ASCORBIC ACID], the IC50 in assay [8] came to 22 µM.
In assay [3], `O=C(O)c1cn(C2CC2)c2cc(N3CCNCC3)c(F)cc2c1=O` [CIPROFLOXACIN LACTATE] returned an MIC of 7.42 µM.
In the case of `COc1cc([C@@H]2c3cc4c(cc3[C@@H](O[C@@H]3O[C@@H]5CO[C@@H](C)O[C@H]5[C@H](O)[C@H]3O)[C@H]3COC(=O)[C@H]23)OCO4)cc(OC)c1O` [ETOPOSIDE], the IC50 in assay [1] came to 0.63 µM; in assay [2], 0.05 µM; in assay [4] it was 0.042 µM; in assay [6], 1.03 µM.
Consider `OC(Cn1cncn1)(Cn1cncn1)c1ccc(F)cc1F` [FLUCONAZOLE], for which, in assay [7], the minimum inhibitory concentration (MIC) came out at 5.1 µM (≈ 1.56 µg/mL).
